“Also recorded” adds a separate entry of the source.
Key:
[1] = test system: immature LC (Langerhans cells); assay: Activation of immature LC: HLA-DR and CD86 expression by flow cytometry; assay type: cell-based, human; parameters: class II or CD86 upregulation on immature LC: dose or concentration left out as unconfirmed; settings: for activation of immature LC (class II / CD86, DRhi-CD86hi) in the presence of TNFα: TNFα 1-10 ng/ml
Experimental: Immature LC were cultured with retinol or vehicle and/or TNFα for 40 h. Cells were washed and incubated with HLA-DR-FITC and CD86-PE or isotype controls for 15 min at 4° C. 10^4 events were then analyzed with a FACScalibur (Becton Dickinson) using CellQuest software (Becton Dickinson). % are given for DRhi CD86hi cells gated as indicated. Data are representative of three experiments on different donors.
FIG. 3A: Day 6 immature LC were cultured for 40 h with TNFα and/or retinoids or vehicle as indicated. Cells were washed and stained with HLA-DR-FITC and CD86-PE or isotype controls for 15 min at 4° C. 10^4 events were then analyzed with a FACScalibur (Becton Dickinson) using CellQuest software (Becton Dickinson). Data are given for DRhi/CD86 hi cells gated as indicated, and are representative of 10 experiments on different donors.
Percentages of DRhi/CD86 hi cells are represented and results are expressed as the mean±SD of at last three experiments on different donors.
Flow Cytometry Analysis. 1×10^5 cells were incubated in 96-well plates (Becton Dickinson Labware, Franklin Lakes, N.J.) for 15 min at 4 ° C. in PBS, 2% human AB serum, and 0.01 M NaN3, with FITC-conjugated anti-DR (Immunotech, Marseille, France) and PE-conjugated CD86 (Pharmingen, San Diego, Calif.) at the appropriate concentration, or with control isotype-matched irrelevant mAbs at the same concentration. After washing, 10^4 events were analyzed with a FACScalibur (Becton Dickinson Immunocytometry Systems, Mountain View, Calif.) using CellQuest software.

[2] = test system: RXR AF2; settings: retinoid activity, reporter cells; cited from earlier work
[3] = test system: immature LC (Langerhans cells); assay: Apoptosis of immature LC, flow cytometry of PI stained nuclei (sub 2N particles) / annexin V; assay type: cell-based, human; settings: for induction of apoptosis / death of immature LC by the substance on its own: no TNFα; for induction of apoptosis / death of immature LC by the substance on its own / synergy with the pan-RXR agonist SR11237 to induce LC death / inhibition of retinoid-induced apoptosis / cell death of immature LC: result in words
[4] = target: T1, RARβ AF2 (Homo sapiens, UniProt P10826); settings: retinoid activity, reporter cells; cited from earlier work; also: key: '+' = agonist; '(+)' = weak agonist; '−' = antagonist; '0' = absence of agonist and antagonist activities
T1 construct: expressed in transfected cells
T1 sequence (P10826 183-417 limits assumed): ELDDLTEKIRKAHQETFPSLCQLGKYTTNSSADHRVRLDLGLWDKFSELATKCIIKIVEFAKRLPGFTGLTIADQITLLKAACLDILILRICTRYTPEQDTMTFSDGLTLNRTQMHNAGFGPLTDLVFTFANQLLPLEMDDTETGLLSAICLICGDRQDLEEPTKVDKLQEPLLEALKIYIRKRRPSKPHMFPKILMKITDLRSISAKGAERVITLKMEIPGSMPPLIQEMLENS

[5] = target: T2, RARγ AF2 (Homo sapiens, UniProt P13631); settings: retinoid activity, reporter cells; cited from earlier work; also: key: '+' = agonist; '(+)' = weak agonist; '−' = antagonist; '0' = absence of agonist and antagonist activities
T2 construct: expressed in transfected cells
T2 sequence (P13631 185-419 limits assumed): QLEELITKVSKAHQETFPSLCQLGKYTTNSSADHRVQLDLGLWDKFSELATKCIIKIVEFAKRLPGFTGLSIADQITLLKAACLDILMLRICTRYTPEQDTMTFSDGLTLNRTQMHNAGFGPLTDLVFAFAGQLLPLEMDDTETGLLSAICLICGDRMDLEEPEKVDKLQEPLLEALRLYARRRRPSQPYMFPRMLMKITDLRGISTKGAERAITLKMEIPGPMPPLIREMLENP

[6] = target: T3, RARα AF2 (Homo sapiens, UniProt P10276); settings: retinoid activity, reporter cells; cited from earlier work; also: key: '+' = agonist; '(+)' = weak agonist; '−' = antagonist; '0' = absence of agonist and antagonist activities
T3 construct: expressed in transfected cells
T3 sequence (P10276 183-417 limits assumed): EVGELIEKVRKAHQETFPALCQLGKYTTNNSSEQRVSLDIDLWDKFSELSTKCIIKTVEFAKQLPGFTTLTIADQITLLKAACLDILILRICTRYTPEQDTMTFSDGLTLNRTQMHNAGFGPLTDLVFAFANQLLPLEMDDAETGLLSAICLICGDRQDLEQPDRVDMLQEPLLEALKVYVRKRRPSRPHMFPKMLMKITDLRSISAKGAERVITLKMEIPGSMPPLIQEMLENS

[7] = target: T4, RXRα homodimer [(RXR)2] (Homo sapiens, UniProt P19793); settings: retinoid activity, transient transfection; cited from earlier work; also: key: '+' = agonist; '(+)' = weak agonist; '−' = antagonist; '0' = absence of agonist and antagonist activities
T4 construct: expressed in transfected cells
T4 sequence (P19793 1-462): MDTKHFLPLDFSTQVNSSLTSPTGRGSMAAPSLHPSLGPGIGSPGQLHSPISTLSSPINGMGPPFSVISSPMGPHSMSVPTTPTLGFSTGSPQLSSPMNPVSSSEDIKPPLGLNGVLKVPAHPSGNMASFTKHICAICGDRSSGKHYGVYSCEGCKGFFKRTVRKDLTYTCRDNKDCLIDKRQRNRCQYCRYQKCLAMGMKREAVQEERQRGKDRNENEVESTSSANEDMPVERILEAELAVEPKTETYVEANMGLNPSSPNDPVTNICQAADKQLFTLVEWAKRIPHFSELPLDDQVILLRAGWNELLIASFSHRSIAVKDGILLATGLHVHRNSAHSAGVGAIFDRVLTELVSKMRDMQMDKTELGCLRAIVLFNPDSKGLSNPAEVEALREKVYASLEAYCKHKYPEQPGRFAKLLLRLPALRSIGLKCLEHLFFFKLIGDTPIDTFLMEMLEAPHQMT

[8] = target: T5, RARα-RXRα heterodimer (Homo sapiens, UniProt P10276+P19793); settings: retinoid activity, transient transfection; cited from earlier work
T5 construct: expressed in transfected cells
T5 sequence (P10276 1-462): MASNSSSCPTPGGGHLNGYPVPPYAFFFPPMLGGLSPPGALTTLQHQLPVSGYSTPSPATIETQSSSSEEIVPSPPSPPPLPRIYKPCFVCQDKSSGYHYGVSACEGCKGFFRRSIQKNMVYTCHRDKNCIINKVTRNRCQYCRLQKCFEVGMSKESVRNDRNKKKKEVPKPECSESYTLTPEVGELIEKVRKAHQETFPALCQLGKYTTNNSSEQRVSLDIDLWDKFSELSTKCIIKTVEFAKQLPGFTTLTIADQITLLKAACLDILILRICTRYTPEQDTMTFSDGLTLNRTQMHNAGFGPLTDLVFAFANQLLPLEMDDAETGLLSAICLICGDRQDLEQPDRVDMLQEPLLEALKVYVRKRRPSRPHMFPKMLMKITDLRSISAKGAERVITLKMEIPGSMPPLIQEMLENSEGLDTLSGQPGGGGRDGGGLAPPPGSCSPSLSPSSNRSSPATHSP
T5 sequence (P19793 1-462): T4 sequence (P19793 1-462)

[9] = 1 nM, two days in culture, mean ± SD
[10] = 10 nM, two days in culture, mean ± SD
[11] = 100 nM, two days in culture, mean ± SD
[12] = 1 μM, two days in culture, mean ± SD

| Compound | activation of immature LC (class II / CD86, DRhi-CD86hi) in the presence of TNFα ([1]; result in words) | RXR AF2 [2] | percentage of apoptotic (<2N) particles [3, 9] | percentage of apoptotic (<2N) particles [3, 10] | percentage of apoptotic (<2N) particles [3, 11] | percentage of apoptotic (<2N) particles [3, 12] | RARβ AF2 [4] | RARγ AF2 [5] | RARα AF2 [6] | percentage of apoptotic (<2N) particles ([3]; 100 nM SR11237 + 1 nM ligand) | percentage of apoptotic (<2N) particles ([3]; 100 nM SR11237 + 10 nM ligand) | percentage of apoptotic (<2N) particles ([3]; 100 nM SR11237 + 100 nM ligand) | percentage of apoptotic (<2N) particles ([3]; 100 nM SR11237 + 1 μM ligand) | inhibition of retinoid-induced apoptosis / cell death of immature LC [3] | other results |
| --- | --- | --- | --- | --- | --- | --- | --- | --- | --- | --- | --- | --- | --- | --- | --- |
| CC1=C(/C=C/C(C)=C\C=C\C(C)=C\C(=O)O)C(C)(C)CCC1 [Compound 9cRA, 9-cis retinoic acid, reference compound] | upregulate | + | ≦5% | ≦5% | 8 ± 3% | 30 ± 9% |  |  |  |  |  |  |  |  | class II or CD86 upregulation on immature LC ([1]; in the absence or at low concentrations of TNFα): did not significantly induce; induction of apoptosis / death of immature LC by the substance on its own [3]: induced a similar dose- and time-dependent increase in death |
| CC1(C)CC=C(c2ccccc2)c2cc(/C=C/c3ccc(C(=O)O)cc3Cl)ccc21 [Compound III, (E)-3-Chloro-4-[2-(5,6-dihydro-5,5-dimethyl-8-phenyl-2-naphthalenyl)-ethenyl] benzoic acid] | weak effect; also recorded: upregulate | 0 | ≦5% | ≦5% | ≦5% | ≦5% | + | 0 | 0 | ≦5% | ≦5% | 16 ± 3% | 30 ± 2% |  | synergy with the pan-RXR agonist SR11237 to induce LC death [3]: synergized with the pan-RXR agonist to induce LC death |
| C=C(c1ccc(C(=O)O)cc1)c1cc2c(cc1C)C(C)(C)CC=C2C(C)C [Compound V, 4-[1-[5,6-Dihydro-3,5,5-trimethyl-8-(1-methylethyl)-2-naphthalenyl]ethenyl]benzoic acid] | also synergized with TNFα to activate LC | + | ≦5% | ≦5% | ≦5% | ≦5% | − | − | − |  |  |  |  |  | (RXR)2 AF2 [7]: +; RARα-RXR DR5 [8]: −; induction of apoptosis / death of immature LC by the substance on its own [3]: neither SR11237 (Table 3) nor BMS749 exhibited an apoptotic effect |
| CC1(C)CC=C(C#Cc2ccccc2)c2cc(/C=C/c3ccc(C(=O)O)cc3)ccc21 [Compound VIII] |  | 0 |  |  |  |  | − | − | − | ≦5% | ≦5% | ≦5% | ≦5% | inhibited retinol-induced cell death; also recorded: strongly inhibited | effect on Compound II / SR11237 synergy for TNFα-induced LC activation ([1]; result in words): inhibited; effect on TNFα-SR11237 synergism for LC activation ([1]; result in words): only a weak effect; effect on synergy between TNFα and retinol, tRA or Compound I on LC activation ([1]; result in words): inhibited; effect on 9cRA-induced LC activation ([1]; with TNFα, result in words): only partially blocked |
| CC1(C)CC=C(c2ccccc2)c2cc(/C=C/c3ccc(C(=O)O)cc3)ccc21 [Compound VII] | weak effect | 0 | ≦5% | ≦5% | ≦5% | 10 ± 6% | + | − | − | ≦5% | 5% | 20 ± 6% | 19 ± 7% |  | synergy with the pan-RXR agonist SR11237 to induce LC death [3]: synergized with the pan-RXR agonist to induce LC death |
| Cc1ccc(S(=O)(=O)N[C@@H](Cc2ccccc2)C(=O)CCl)cc1 [TPCK] |  |  |  |  |  |  |  |  |  |  |  |  |  |  | inhibition of the increase of class II and CD86 on LCs ([1]; LCs treated with tRA and TNFα, TPCK 10 nM): 50%; toxicity on LCs ([1]; TPCK 10 nM, LCs treated with tRA and TNFα): without any evidence of toxicity |
| IL-1β: Human recombinant IL-1β from R&D Systems |  |  |  |  |  |  |  |  |  |  |  |  |  | inhibited the apoptotic effect of retinoids |  |
| TNFα |  |  |  |  |  |  |  |  |  |  |  |  |  | inhibited the pro-apoptotic effects | inhibition of the pro-apoptotic effects of retinol ([3]; 1 ng/ml of TNFα): > 50%; percentage of apoptotic (<2N) particles ([3]; agent + Cmpd. I 1 μM, Cmpd. II 1 μM, Cmpd. VIII 1 μM, Z-Vad 50 μM, TNFα 10 ng/ml, CD40L coculture): 11 ± 1%; percentage of apoptotic (<2N) particles ([3]; agent + Compound I 100 nM + SR11237 100 nM, Cmpd. II 1 μM, Cmpd. VIII 1 μM, Z-Vad 50 μM, TNFα 10 ng/ml, CD40L coculture): 14 ± 2%; percentage of apoptotic (<2N) particles ([3]; agent + Rol 1 μM, Cmpd. VIII 1 μM, TNFα 10 ng/ml): 4.5 ± 1%; percentage of apoptotic (<2N) particles ([3]; agent + tRA 1 μM, Cmpd. II 1 μM, Cmpd. VIII 1 μM, Z-Vad 50 μM, TNFα 10 ng/ml, CD40L coculture): 8 ± 7%; percentage of apoptotic (<2N) particles ([3]; agent alone (column 0), Cmpd. II 1 μM, Cmpd. VIII 1 μM, Z-Vad 50 μM, TNFα 10 ng/ml, CD40L coculture): ≦5% |

Source: patent US20020090352A1, “Compositions and methods for use in modulating immune system function” (priority 2000, published 2002)
